Experimental data from publication PMC5011342, “A high throughput drug screening assay to identify compounds that promote oligodendrocyte differentiation using acutely dissociated and purified oligodendrocyte precursor cells” (BMC Research Notes, 2016).
Read-outs that look alike come from different tables or passages of the source.

What was measured:
[1] = test system: acutely dissociated and purified rat OPCs; experiment: Acute OL differentiation assay (MBP expression/cell, immunofluorescent image quantification); assay type: cell-based; details: sheet "All OLga data"; for activation at 0.4 µM / 0.4 uM (% Quet): test compound at 0.4 uM; for activation at 0.4 µM: read-out: 0.4 uM (% Quet)
Summary of the method: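 Oligodendrocyte precursor cells were enriched from P6-P7 Sprague–Dawley rat brains by immunopanning (RAN-2 and GalC depletion, O4 selection), plated at 5000 cells/well in serum-free, mitogen-free differentiation media on PDL/laminin 96-well view plates, centrifuged at 200×g, and pre-incubated 1–2 h before test compounds were added in quadruplicate. On DIV4, cells were fixed, stained for MBP and DAPI, imaged automatically, and MBP expression per cell was quantified.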

[2] = test system: expanded OPCs; experiment: cells; details: for viability at 0.1 µM / viability at 1 µM / viability at 10 µM: Rattus norvegicus, 72 h
Summary of the method: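 Expanded OPCs seeded at 10,000 cells/well in differentiation media, then exposed to NCC library compounds at 10, 1 and 0.1 µM (quadruplicate, 0.1% DMSO) for three days. Viability read as alamarBlue fluorescence (560/590 nm) after 4 h at 37 °C; tunicamycin 5 ng/ml served as toxicity control.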

[3] = Rattus norvegicus, NCC library screen, relative to quetiapine
[4] = read-out: 0.1 µM (% DMSO), alamarBlue viability, NCC library compound at 0.1 µM, sheet "All Tox data"
[5] = read-out: 1 µM (% DMSO), alamarBlue viability, NCC library compound at 1 µM, sheet "All Tox data"
[6] = read-out: 10 µM (% DMSO), alamarBlue viability, NCC library compound at 10 µM, sheet "All Tox data"
[7] = Rattus norvegicus, 2 uM test compound, relative to quetiapine, read-out: OL differentiation, 2 uM (% Quet)
[8] = Rattus norvegicus, 10 uM test compound, relative to quetiapine, read-out: OL differentiation, 10 uM (% Quet)
[9] = read-out: 0.1 µM (% DMSO), alamarBlue viability of expanded OPCs, compound at 0.1 µM, sheet All Tox data
[10] = read-out: 1 µM (% DMSO), alamarBlue viability of expanded OPCs, compound at 1 µM, sheet All Tox data
[11] = read-out: 10 µM (% DMSO), alamarBlue viability of expanded OPCs, compound at 10 µM, sheet All Tox data
[12] = Rattus norvegicus, test compound at 2 uM, NCC library screen, relative to quetiapine, read-out: 2 uM (% Quet)
[13] = Rattus norvegicus, test compound at 10 uM, NCC library screen, relative to quetiapine, read-out: 10 uM (% Quet)
[14] = NCC library screen, relative to quetiapine
[15] = alamarBlue viability, NCC library compound at 0.1 µM, sheet "All Tox data"
[16] = alamarBlue viability, NCC library compound at 1 µM, sheet "All Tox data"
[17] = alamarBlue viability, NCC library compound at 10 µM, sheet "All Tox data"

Structure (SMILES): CN1CC[C@]23c4c5ccc(O)c4O[C@H]2c2[nH]c4ccccc4c2C[C@@]3(O)[C@H]1C5 [Oxymorphindole]
- activation at 0.08 µM ([1]; Rattus norvegicus, test compound at 0.08 uM, NCC library screen, relative to quetiapine, read-out: 0.08 uM (% Quet)): -8.6%
- activation at 0.4 µM [1, 3]: -51.8%
- viability at 0.1 µM [2, 4]: 85.7%
- viability at 1 µM [2, 5]: 54.1%
- viability at 10 µM [2, 6]: 12%

Structure (SMILES): CC[C@H]1OC(=O)[C@H](C)[C@@H](O[C@H]2C[C@@](C)(OC)[C@@H](O)[C@H](C)O2)[C@H](C)[C@@H](O[C@@H]2O[C@H](C)C[C@H](N(C)C)[C@H]2O)[C@](C)(O)C[C@@H](C)C(=O)[C@H](C)[C@@H](O)[C@]1(C)O [Erythromycin]
- activation at 2 µM [1, 7]: -40.1%
- activation at 10 µM [1, 8]: -66.2%
- viability at 0.1 µM [2, 9]: 93.4%
- viability at 1 µM [2, 10]: 89.6%
- viability at 10 µM [2, 11]: 59.1%

Structure (SMILES): CC1=C(C(=O)O)N2C(=O)[C@@H](NC(=O)[C@H](N)c3ccccc3)[C@H]2SC1 [Cephalexin]
- activation at 2 µM [1, 7]: -1.3%
- activation at 10 µM [1, 8]: -4.5%
- viability at 0.1 µM [2, 9]: 103%
- viability at 1 µM [2, 10]: 110%
- viability at 10 µM [2, 11]: 112%

Structure (SMILES): Cl.Cl.O=C(O)COCCN1CCN(C(c2ccccc2)c2ccc(Cl)cc2)CC1 (centres unmarked) [Virlix]
- 2 uM (% Quet) ([1]; test compound at 2 uM, MBP expression relative to quetiapine, NCC library screen): 3.4 % Quet
- 10 uM (% Quet) ([1]; test compound at 10 uM, MBP expression relative to quetiapine, NCC library screen): -0.36 % Quet
- 0.1 µM (% DMSO) [2]: 98.3 % DMSO
- 1 µM (% DMSO) [2]: 92.7 % DMSO
- 10 µM (% DMSO) [2]: 81.0 % DMSO

Structure (SMILES): CN(C)c1ccc(O)c2c1C[C@H]1C[C@H]3[C@H](N(C)C)C(O)=C(C(N)=O)C(=O)[C@@]3(O)C(O)=C1C2=O [Minocycline]
- activation at 2 µM [1, 12]: 10.9%
- activation at 10 µM [1, 13]: -13.3%
- 0.1 µM (% DMSO) ([2]; alamarBlue viability of expanded OPCs, compound at 0.1 µM, relative to DMSO control): 90.1 % DMSO
- 1 µM (% DMSO) ([2]; alamarBlue viability of expanded OPCs, compound at 1 µM, relative to DMSO control): 90.9 % DMSO
- 10 µM (% DMSO) ([2]; alamarBlue viability of expanded OPCs, compound at 10 µM, relative to DMSO control): 83.5 % DMSO

Structure (SMILES): CCCCCCCCCOc1ccc2[nH]cc(CCN)c2c1 [5-Nonyloxytryptamine]
- 0.08 uM (% Quet) ([1]; test compound at 0.08 uM, NCC library screen, relative to quetiapine): -24.6 % Quet
- 0.4 uM (% Quet) [1, 14]: -339.9 % Quet
- 0.1 µM (% DMSO) [2, 15]: 59.8 % DMSO
- 1 µM (% DMSO) [2, 16]: 9.3 % DMSO
- 10 µM (% DMSO) [2, 17]: 8.5 % DMSO

Structure (SMILES): Nc1nc(Cl)nc2c1ncn2[C@@H]1O[C@H](CO)[C@@H](O)[C@H]1O [2-Chloroadenosine]
- OL differentiation, 2 uM (% Quet) ([1]; 2 uM test compound, relative to quetiapine): 8.0 % Quet
- OL differentiation, 10 uM (% Quet) ([1]; 10 uM test compound, relative to quetiapine): 32.5 % Quet
- 0.1 µM (% DMSO) [2, 15]: 113.1 % DMSO
- 1 µM (% DMSO) [2, 16]: 99.2 % DMSO
- 10 µM (% DMSO) [2, 17]: 99.5 % DMSO

Structure (SMILES): O=C1CCC(N2C(=O)c3ccccc3C2=O)C(=O)N1 (centres unmarked) [Thalidomide]
- activation at 2 µM [1, 12]: -9.1%
- activation at 10 µM [1, 13]: -26.7%
- viability at 0.1 µM [2, 4]: 110%
- viability at 1 µM [2, 5]: 92.4%
- viability at 10 µM [2, 6]: 99.3%

Structure (SMILES): O=[N+]([O-])c1cccc2cn[nH]c12 [7-Nitroindazole]
- activation at 2 µM [1, 12]: -7.1%
- activation at 10 µM [1, 13]: 5.7%
- viability at 0.1 µM [2, 4]: 84.2%
- viability at 1 µM [2, 5]: 88.9%
- viability at 10 µM [2, 6]: 89.1%

Structure (SMILES): C=C1C[C@@H]2[C@H](CC[C@]3(C)C(=O)CC[C@@H]23)[C@@]2(C)C=CC(=O)C=C12 [Exemestane]
- activation at 2 µM [1, 7]: -24.2%
- activation at 10 µM [1, 8]: -57.2%
- viability at 0.1 µM [2, 4]: 92.7%
- viability at 1 µM [2, 5]: 95.1%
- viability at 10 µM [2, 6]: 102%

Structure (SMILES): CN1CCN(C2=Nc3cc(F)ccc3Cc3ccccc32)CC1 [Fluperlapine]
- activation at 0.4 µM [1, 3]: -10.3%
- activation at 2 µM [1, 12]: -16.2%
- viability at 0.1 µM [2, 4]: 78.1%
- viability at 1 µM [2, 5]: 64.8%
- viability at 10 µM [2, 6]: 32.2%

Structure (SMILES): CN1CC[C@]2(c3cccc(O)c3)Cc3nc4ccccc4cc3C[C@H]2C1 [SB 205607]
- 0.4 uM (% Quet) [1, 14]: 15.0 % Quet
- 2 uM (% Quet) ([1]; test compound at 2 uM, NCC library screen, relative to quetiapine): 5.9 % Quet
- 0.1 µM (% DMSO) [2, 15]: 84.0 % DMSO
- 1 µM (% DMSO) [2, 16]: 78.4 % DMSO
- 10 µM (% DMSO) [2, 17]: 50.8 % DMSO

Structure (SMILES): CCCN(CCC)S(=O)(=O)c1ccc(C(=O)O)cc1 [Probenecid]
- activation at 2 µM [1, 12]: 1.7%
- activation at 10 µM [1, 13]: -6.4%
- viability at 0.1 µM [2, 4]: 89.6%
- viability at 1 µM [2, 5]: 94.3%
- viability at 10 µM [2, 6]: 91.5%
